The subject of assay [1] is KB 3-1. Nature of the assay: Cytotoxicity in human KB 3-1 cells assessed as reduction in cell viability measured after 5 days by MTT assay. The conditions noted are these: KB 3-1, 120 h. In kind it is functional, cell-based. On the technique in general: Tetrazolium dyes change colour on reduction, which living cells bring about.
The subject of assay [2] is Staphylococcus aureus. The experiment in a line: Antibacterial activity against Staphylococcus aureus DSM 346 assessed as growth inhibition by serial dilution assay. In kind it is functional.
Assay [3] relates to Mycolicibacterium smegmatis. The experiment in a line: Antibacterial activity against Mycobacterium smegmatis DSM ATCC 700084 assessed as growth inhibition by serial dilution assay. In kind it is functional, organism-based.
In assay [4] the test system is Bacillus subtilis. Nature of the assay: Antibacterial activity against Bacillus subtilis DSM 10 assessed as growth inhibition by serial dilution assay. It is filed as functional.
Assay [5] concerns Escherichia coli. Nature of the assay: Antibacterial activity against Escherichia coli ATCC 8739 assessed as inhibition of bacterial growth measured after 18 hrs by Alamar blue assay. In kind it is functional.
The test system of assay [6] is Escherichia coli. The experiment in a line: Antibacterial activity against Escherichia coli DSM 1116 assessed as growth inhibition by serial dilution assay. In kind it is functional.

Converted amounts (≈) assume the structure as drawn. The source made the active and inactive calls.

Experimental findings from ChEMBL document CHEMBL4837212, “Cytotoxic Compounds from the Stem Bark of Two subsp. of Bersama abyssinica” (J Nat Prod, 2021) are described below.

One may read the IC50 as the point on the concentration scale where inhibition reaches its midpoint. Broadly, the MIC is the smallest concentration in the dilution series that meets the test's criterion for growth inhibition.

On to `CC12O[C@H]3C[C@@H](O1)[C@]1(C)[C@H]4CC[C@@]5(C)C(=CC(=O)[C@@H]5c5ccc(=O)oc5)[C@@H]4CC[C@@]1(C3)O2`, for which the IC50 in assay [1] is 1400 nM. In addition, the minimal inhibitory concentration (MIC) in assay [2] was 152 µM (≈ 66.7 µg/mL). Further, the outcome in assay [3] was inactive.
Turning to `CC12O[C@H]3C[C@@H](O1)[C@]1(C)[C@H]4CC[C@]5(C)[C@@H](c6ccc(=O)oc6)[C@@H](O)C[C@]5(O)[C@@H]4CC[C@@]1(C3)O2`, in assay [1], the half-inhibitory concentration (IC50) was determined as 1600 nM. Moreover, in assay [3], the outcome was inactive.
Turning to `COC1=C2[C@@H]3CC[C@@]45C[C@@H]6C[C@@H](OC(C)(O6)O4)[C@]5(C)[C@H]3CC[C@]2(C)[C@@H](c2ccc(=O)oc2)C1=O`, the MIC in assay [2] is 142 µM (≈ 66.8 µg/mL). For the same compound, in assay [3], the outcome was inactive.
`O=C(OC[C@H]1O[C@@H](OC(=O)c2cc(O)c(O)c(O)c2)[C@H](OC(=O)c2cc(O)c(O)c(O)c2)[C@@H](OC(=O)c2cc(O)c(O)c(O)c2)[C@@H]1O)c1cc(O)c(O)c(O)c1`: the outcome in assay [3] was inactive.
On to `O=c1c2cc(O)c(O)cc2oc2cc(O)c([C@H]3O[C@@H](CO)[C@H](O)[C@@H](O)[C@@H]3O)c(O)c12`, for which the MIC in assay [2] came out at 158 µM (≈ 66.7 µg/mL); in assay [4] it was 158 µM (≈ 66.7 µg/mL); in assay [5] it was 36.7 µM (≈ 15.5 µg/mL). The outcome in assay [3] was inactive.
For the compound `O=C(OC[C@H]1O[C@@H](OC(=O)c2cc(O)c(O)c(O)c2)[C@H](OC(=O)c2cc(O)c(O)c(O)c2)[C@@H](O)[C@@H]1O)c1cc(O)c(O)c(O)c1`, in assay [6], the MIC worked out at 52.4 µM (≈ 33.4 µg/mL). Further, the result in assay [3] was inactive.
